From patent US9365576B2, “Pyrrolopyrrolidinone compounds” (Novartis AG, priority 2012, dated 2016)
pIC50: −log10 of the molar value.

biological target: human MDM2 protein (amino acids 2-188) (Homo sapiens (Human), UniProt Q00987); test: TR-FRET assay, p53-MDM2 Assay 2 (modified); type: binding; details: TR-FRET; 0.1 nM MDM2, 0.1 nM Europium labeled streptavidin, Tecan genios Pro reader; read-out: IC50 p53-MDM2 Assay 2
How it was run: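 Biotinylated human MDM2 (aa 2–188, 1.25 nM) was preincubated 15 min at room temperature with 0.625 nM Eu-streptavidin, then 10 nM Cy5-p53 peptide (aa 18–26) added for 15 min. TR-FRET ratio 665/620 nm (excitation 340 nm) was read; IC50 came from curve fitting.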

Sequence of human MDM2 protein (amino acids 2-188) (Q00987 2-188): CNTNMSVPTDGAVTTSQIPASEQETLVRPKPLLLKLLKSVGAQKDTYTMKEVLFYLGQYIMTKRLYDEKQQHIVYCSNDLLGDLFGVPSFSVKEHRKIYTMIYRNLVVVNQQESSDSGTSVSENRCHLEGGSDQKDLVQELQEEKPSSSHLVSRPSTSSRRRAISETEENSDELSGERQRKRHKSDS

| pIC50 | SMILES |
| --- | --- |
| 8.43 | COc1nc(N)ncc1-c1cc2c(n1C(C)C)C(c1ccc(Cl)cc1)N(c1cc(C)nn1C)C2=O (stereo not drawn) [Example 175, 2-(2-Amino-4-methoxy-pyrimidin-5-yl)-6-(4-chloro-phenyl)-5-(2,5-dimethyl-2H-pyrazol-3-yl)-1-isopropyl-5,6-dihydro-1H-pyrrolo[3,4-b]pyrrol-4-one] |
| 9.06 | COc1ncc(-c2cc3c(n2C(C)C)C(c2ccc(Cl)cc2)N(c2cc(C)nn2C)C3=O)c(OC)n1 (stereo not drawn) [Example 176, 6-(4-Chloro-phenyl)-2-(2,4-dimethoxy-pyrimidin-5-yl)-5-(2,5-dimethyl-2H-pyrazol-3-yl)-1-isopropyl-5,6-dihydro-1H-pyrrolo[3,4-b]pyrrol-4-one] |
| 9.29 | COc1nc(N(C)C)ncc1-c1cc2c(n1C(C)C)C(c1ccc(Cl)cc1)N(c1cc(C)nn1C)C2=O (stereo not drawn) [Example 177, 6-(4-Chloro-phenyl)-2-(2-dimethylamino-4-methoxy-pyrimidin-5-yl)-5-(2,5-dimethyl-2H-pyrazol-3-yl)-1-isopropyl-5,6-dihydro-1H-pyrrolo[3,4-b]pyrrol-4-one] |
| 8.97 | COc1cn(C)c(=O)cc1-c1cc2c(n1C(C)C)C(c1ccc(Cl)cc1)N(c1cc(C)nn1C)C2=O (stereo not drawn) [Example 178, 6-(4-Chloro-phenyl)-5-(2,5-dimethyl-2H-pyrazol-3-yl)-1-isopropyl-2-(5-methoxy-1-methyl-2-oxo-1,2-dihydro-pyridin-4-yl)-5,6-dihydro-1H-pyrrolo[3,4-b]pyrrol-4-one] |
| 8.46 | COc1ncc(-c2cc3c(n2C(C)C)C(c2ccc(C#N)cc2)N(c2cc(C)nn2C)C3=O)c(OC)n1 (stereo not drawn) [Example 179, 4-[2-(2,4-Dimethoxy-pyrimidin-5-yl)-5-(2,5-dimethyl-2H-pyrazol-3-yl)-1-isopropyl-4-oxo-1,4,5,6-tetrahydro-pyrrolo[3,4-b]pyrrol-6-yl]-benzonitrile] |
| 9.19 | COc1nc(N(C)C)ncc1-c1cc2c(n1C(C)C)C(c1ccc(C#N)cc1)N(c1cc(C)nn1C)C2=O (stereo not drawn) [Example 180, 4-[2-(2-Dimethylamino-4-methoxy-pyrimidin-5-yl)-5-(2,5-dimethyl-2H-pyrazol-3-yl)-1-isopropyl-4-oxo-1,4,5,6-tetrahydro-pyrrolo[3,4-b]pyrrol-6-yl]-benzonitrile] |
| 8.62 | COc1ncc(-c2cc3c(n2C(C)C)C(c2ccc(Cl)cc2)N(c2cn(C)nc2C)C3=O)c(OC)n1 (stereo not drawn) [Example 181, 6-(4-Chloro-phenyl)-2-(2,4-dimethoxy-pyrimidin-5-yl)-5-(1,3-dimethyl-1H-pyrazol-4-yl)-1-isopropyl-5,6-dihydro-1H-pyrrolo[3,4-b]pyrrol-4-one] |
| 9.18 | COc1nc(N(C)C)ncc1-c1cc2c(n1C(C)C)C(c1ccc(Cl)cc1)N(c1cn(C)nc1C)C2=O (stereo not drawn) [Example 182, 6-(4-Chloro-phenyl)-2-(2-dimethylamino-4-methoxy-pyrimidin-5-yl)-5-(1,3-dimethyl-1H-pyrazol-4-yl)-1-isopropyl-5,6-dihydro-1H-pyrrolo[3,4-b]pyrrol-4-one] |
| 8.59 | COc1ccc(S(C)(=O)=O)cc1-c1cc2c(n1C(C)C)C(c1ccc(Cl)cc1)N(c1cn(C)nc1C)C2=O (stereo not drawn) [Example 183, 6-(4-Chloro-phenyl)-5-(1,3-dimethyl-1H-pyrazol-4-yl)-1-isopropyl-2-(5-methanesulfonyl-2-methoxy-phenyl)-5,6-dihydro-1H-pyrrolo[3,4-b]pyrrol-4-one] |
| 8.25 | COc1cn(C)c(=O)cc1-c1cc2c(n1C(C)C)C(c1ccc(Cl)cc1)N(c1cn(C)nc1C)C2=O (stereo not drawn) [Example 184, 6-(4-Chloro-phenyl)-5-(1,3-dimethyl-1H-pyrazol-4-yl)-1-isopropyl-2-(5-methoxy-1-methyl-2-oxo-1,2-dihydro-pyridin-4-yl)-5,6-dihydro-1H-pyrrolo[3,4-b]pyrrol-4-one] |
| 9.65 | COc1nc(N(C)C)ncc1-c1cc2c(n1C(C)C)C(c1ccc(C#N)cc1)N(c1cc(Cl)c(=O)n(C)c1)C2=O (stereo not drawn) [Example 185, 4-[5-(5-Chloro-1-methyl-6-oxo-1,6-dihydro-pyridin-3-yl)-2-(2-dimethylamino-4-methoxy-pyrimidin-5-yl)-1-isopropyl-4-oxo-1,4,5,6-tetrahydro-pyrrolo[3,4-b]pyrrol-6-yl]-benzonitrile] |
| 9.97 | COc1ncc(-c2cc3c(n2C(C)C)[C@H](c2ccc(C#N)cc2)N(c2cc(Cl)c(=O)n(C)c2)C3=O)c(OC)n1 [Example 186, 4-[(S)-5-(5-Chloro-1-methyl-6-oxo-1,6-dihydro-pyridin-3-yl)-2-(2,4-dimethoxy-pyrimidin-5-yl)-1-isopropyl-4-oxo-1,4,5,6-tetrahydro-pyrrolo[3,4-b]pyrrol-6-yl]-benzonitrile] |
| 6.84 | COc1ncc(-c2cc3c(n2C(C)C)[C@@H](c2ccc(C#N)cc2)N(c2cc(Cl)c(=O)n(C)c2)C3=O)c(OC)n1 [Example 187, 4-[(R)-5-(5-Chloro-1-methyl-6-oxo-1,6-dihydro-pyridin-3-yl)-2-(2,4-dimethoxy-pyrimidin-5-yl)-1-isopropyl-4-oxo-1,4,5,6-tetrahydro-pyrrolo[3,4-b]pyrrol-6-yl]-benzonitrile] |
| 10.10 | COc1nc(N(C)C)ncc1-c1cc2c(n1C(C)C)[C@H](c1ccc(Cl)cc1)N(c1c[nH]c(=O)c(Cl)c1)C2=O [Example 188, (S)-5-(5-Chloro-6-oxo-1,6-dihydro-pyridin-3-yl)-6-(4-chloro-phenyl)-2-(2-dimethylamino-4-methoxy-pyrimidin-5-yl)-1-isopropyl-5,6-dihydro-1H-pyrrolo[3,4-b]pyrrol-4-one] |
| 7.98 | COc1nc(N(C)C)ncc1-c1cc2c(n1C(C)C)[C@@H](c1ccc(Cl)cc1)N(c1c[nH]c(=O)c(Cl)c1)C2=O [Example 189, (R)-5-(5-Chloro-6-oxo-1,6-dihydro-pyridin-3-yl)-6-(4-chloro-phenyl)-2-(2-dimethylamino-4-methoxy-pyrimidin-5-yl)-1-isopropyl-5,6-dihydro-1H-pyrrolo[3,4-b]pyrrol-4-one] |
| 9.20 | COc1nc(N(C)C)ncc1-c1cc2c(n1C(C)C)[C@H](c1ccc(C#N)cc1)N(C1CCOCC1)C2=O [Example 190, 4-[(S)-2-(2-Dimethylamino-4-methoxy-pyrimidin-5-yl)-1-isopropyl-4-oxo-5-(tetrahydro-pyran-4-yl)-1,4,5,6-tetrahydro-pyrrolo[3,4-b]pyrrol-6-yl]-benzonitrile] |
| 6.55 | COc1nc(N(C)C)ncc1-c1cc2c(n1C(C)C)[C@@H](c1ccc(C#N)cc1)N(C1CCOCC1)C2=O [Example 191, 4-[(R)-2-(2-Dimethylamino-4-methoxy-pyrimidin-5-yl)-1-isopropyl-4-oxo-5-(tetrahydro-pyran-4-yl)-1,4,5,6-tetrahydro-pyrrolo[3,4-b]pyrrol-6-yl]-benzonitrile] |
| 9.89 | COc1ncc(-c2cc3c(n2C(C)C)C(c2ccc(Cl)c(F)c2)N(c2cc(Cl)c(=O)n(C)c2)C3=O)c(OC)n1 (stereo not drawn) [Example 192, 6-(4-Chloro-3-fluoro-phenyl)-5-(5-chloro-1-methyl-6-oxo-1,6-dihydro-pyridin-3-yl)-2-(2,4-dimethoxy-pyrimidin-5-yl)-1-isopropyl-5,6-dihydro-1H-pyrrolo[3,4-b]pyrrol-4-one] |
| 9.86 | COc1nc(N(C)C)ncc1-c1cc2c(n1C(C)C)C(c1ccc(Cl)c(F)c1)N(c1cc(Cl)c(=O)n(C)c1)C2=O (stereo not drawn) [Example 193, 6-(4-Chloro-3-fluoro-phenyl)-5-(5-chloro-1-methyl-6-oxo-1,6-dihydro-pyridin-3-yl)-2-(2-dimethylamino-4-methoxy-pyrimidin-5-yl)-1-isopropyl-5,6-dihydro-1H-pyrrolo[3,4-b]pyrrol-4-one] |
| 9.71 | COc1nc(N(C)C)ncc1-c1cc2c(n1C(C)C)C(c1ccc(C#N)c(F)c1)N(c1cc(Cl)c(=O)n(C)c1)C2=O (stereo not drawn) [Example 194, 4-[5-(5-Chloro-1-methyl-6-oxo-1,6-dihydro-pyridin-3-yl)-2-(2-dimethylamino-4-methoxy-pyrimidin-5-yl)-1-isopropyl-4-oxo-1,4,5,6-tetrahydro-pyrrolo[3,4-b]pyrrol-6-yl]-2-fluoro-benzonitrile] |
| 9.60 | COc1ncc(-c2cc3c(n2C(C)C)C(c2ccc(C#N)c(F)c2)N(c2cc(Cl)c(=O)n(C)c2)C3=O)c(OC)n1 (stereo not drawn) [Example 195, 4-[5-(5-Chloro-1-methyl-6-oxo-1,6-dihydro-pyridin-3-yl)-2-(2,4-dimethoxy-pyrimidin-5-yl)-1-isopropyl-4-oxo-1,4,5,6-tetrahydro-pyrrolo[3,4-b]pyrrol-6-yl]-2-fluoro-benzonitrile] |
| 9.40 | COc1ncc(-c2cc3c(n2C(C)C)C(c2ccc(Cl)c(F)c2)N(c2cc(Cl)cn(C)c2=O)C3=O)c(OC)n1 (stereo not drawn) [Example 196, 6-(4-Chloro-3-fluoro-phenyl)-5-(5-chloro-1-methyl-2-oxo-1,2-dihydro-pyridin-3-yl)-2-(2,4-dimethoxy-pyrimidin-5-yl)-1-isopropyl-5,6-dihydro-1H-pyrrolo[3,4-b]pyrrol-4-one] |
| 9.45 | COc1nc(N(C)C)ncc1-c1cc2c(n1C(C)C)C(c1ccc(Cl)c(F)c1)N(c1cc(Cl)cn(C)c1=O)C2=O (stereo not drawn) [Example 197, 6-(4-Chloro-3-fluoro-phenyl)-5-(5-chloro-1-methyl-2-oxo-1,2-dihydro-pyridin-3-yl)-2-(2-dimethylamino-4-methoxy-pyrimidin-5-yl)-1-isopropyl-5,6-dihydro-1H-pyrrolo[3,4-b]pyrrol-4-one] |
| 9.16 | COc1ncc(-c2cc3c(n2C(C)C)C(c2ccc(C#N)c(F)c2)N(c2cc(Cl)cn(C)c2=O)C3=O)c(OC)n1 (stereo not drawn) [Example 198, 4-[5-(5-Chloro-1-methyl-2-oxo-1,2-dihydro-pyridin-3-yl)-2-(2,4-dimethoxy-pyrimidin-5-yl)-1-isopropyl-4-oxo-1,4,5,6-tetrahydro-pyrrolo[3,4-b]pyrrol-6-yl]-2-fluoro-benzonitrile] |
